Experimental data reported in US7781421B2, “Neuroactive 13, 24-cyclo-18, 21-dinorcholanes and structurally related pentacyclic steriods” (Washington University, priority 2003, dated 2010).

Legend:
Xenopus laevis tadpoles = experiment: Tadpole loss of righting (LRR) and swimming (LSR) reflexes; type: in vivo; conditions: 3 h equilibration at room temperature; for EC50: Xenopus laevis, 3 h, read-out: LSR EC50 (loss of swimming response)
Method: Tadpole LRR was measured as described previously. (See, Wittmer, L. L., et al., Enantioselectivity of steroid-induced γ-aminobutyric acidA receptor modulation and anesthesia, Mol. Phar., 1996, 50:1581-1586). Briefly, groups of 10 early prelimb-bud stage Xenopus laevis tadpoles (Nasco, Fort Atkinson, Wis.) were placed in 100 mL of oxygenated Ringer's stock solution containing various concentrations of compound. Compounds were added from a 10 mM DMSO stock (final concentration of DMSO in test solutions ≦0.1%). After equilibrating at room temperature for 3 h, tadpoles were evaluated using the LRR and LSR behavioral endpoints. LRR was defined as failure of the tadpole to right itself within 5 sec after being flipped by a smooth glass rod. LSR was defined as failure of the tadpole to swim when touched by a smooth glass rod. In general, the tadpoles regained their righting and swimming reflexes when placed in fresh oxygenated Ringer's solution. Control beakers containing up to 0.6% DMSO produced no LRR or LSR in tadpoles.
Tadpole LRR and LSR concentration-response curves were fit using Sigma Plot version 3.0 to the Hill equation f=Rmax/{1+([conc]/EC50)^n}
where Rmax is the maximum effect, [conc] is the steroid concentration, EC50 is the half-maximal effective concentration, and n is the Hill coefficient.

[1] = biological target: T1, rat α1β2γ2 GABAA Receptor (Rattus norvegicus, UniProt P18508+P62813+P63138, INS375LLRMFSFK); experiment: Xenopus oocyte two-electrode voltage-clamp electrophysiology; type: cell-based; conditions: for Oocyte electrophysiology, ratio of currents in presence/absence of compound, 0.1 μM: 0.1 μM compound co-applied with 2 μM GABA; for Oocyte electrophysiology, ratio of currents in presence/absence of compound, 0.1 μM / Oocyte electrophysiology, ratio of currents in presence/absence of compound, 1 μM / Oocyte electrophysiology, ratio of currents in presence/absence of compound, 10 μM: −70 mV; for Oocyte electrophysiology, ratio of currents in presence/absence of compound, 1 μM: 1 μM compound co-applied with 2 μM GABA; for Oocyte electrophysiology, ratio of currents in presence/absence of compound, 10 μM: 10 μM compound co-applied with 2 μM GABA; for Gating (10 μM), ratio of compound only current/2 μM GABA current: direct current gated by 10 μM compound in the absence of GABA
T1 construct: from linearized pBluescript vectors containing receptor coding regions; expressed in transfected cells; host or cells: Xenopus laevis oocytes injected with in vitro transcribed capped mRNA
Method: Stage V-VI oocytes were harvested from sexually mature female Xenopus laevis (Xenopus One, Northland, Mich.) under 0.1% tricaine (3-aminobenzoic acid ethyl ester) anesthesia. Oocytes were defolliculated by shaking for 20 min at 37° C. in collagenase (2 mg/ml) dissolved in calcium-free solution containing (in mM): 96 NaCl, 2 KCl, 1 MgCl2, and 5 HEPES at pH 7.4. Capped mRNA, encoding rat GABAA receptor α1, β2 and γ2L subunits was transcribed in vitro using the mMESSAGE mMachine Kit (Ambion, Austin, Tex.) from linearized pBluescript vectors containing receptor coding regions. Subunit transcripts were injected in equal parts (20-40 ng total RNA) 8-24 hours following defolliculation. Oocytes were incubated up to 5 days at 18° C. in ND96 medium containing (in mM): 96 NaCl, 1 KCl, 1 MgCl2, 2 CaCl2 and 5 HEPES at pH 7.4, supplemented with pyruvate (5 mM), penicillin (100 U/ml), streptomycin (100 μg/ml) and gentamycin (50 μg/ml). The cDNAs for the rat GABAA-receptor subunits were originally provided by A. Tobin, University of California, Los Angels (α1), P. Malherbe, Hoffman-La Roche, Switzerland (β2), C. Fraser, National Institute on Alcohol Abuse and Alcoholism (γ2L).
Two-electrode voltage-clamp experiments were performed with a Warner OC725 amplifier 2-5 days following RNA injection. The extracellular recording solution was ND96 medium with no supplements. Intracellular recording pipettes were filled with 3 M KCl and had open tip resistances of ˜1 MΩ. Drugs were applied from a common tip via a gravity-driven multibarrel drug-delivery system. Steroids were simultaneously co-applied with GABA. Cells were clamped at −70 mV for all experiments, and peak current during 20 s drug applications was measured. Data acquisition and analysis were performed with pCLAMP software (Axon Instruments, California). Statistical differences were determined using a two-tailed Student's t-test.
The GABA concentration used for the control response was 2 μM. Each compound was evaluated on at least four different oocytes at the concentrations indicated, and the results reported are the ratio of the currents measured in the presence/absence of added compound. (G) represents direct current gated by 10 μM compound in the absence of GABA, and this current is reported as the ratio of compound only current/2 μM GABA current. Error limits are calculated as standard error of the means.

[2] = biological target: GABAA receptor ([35S]-TBPS binding site, rat brain cortical membranes); experiment: Displacement of [35S]-TBPS binding, rat brain cortical membranes; conditions: 5 μM GABA, 2 nM [35S]-TBPS; ± standard error of the means
Method: Rat brain cortical membranes were prepared with minor modifications of the method previously reported. (Hawkinson, J. E., et al., Correlation of Neuroactive Steroid Modulation of [^35S]t-Butylbicyclophosophorothionate and [^3H]Flunitrazepam Binding and γ-Aminobutyric AcidA Receptor Function, Mol. Pharmacol., 1994, 46, 977-985). Briefly, frozen rat cerebral cortices (Pel-freez, Rogers, Ak.) were thawed and homogenized in 10 volumes of ice-cold 0.32 M sucrose using a glass/Teflon pestle. The homogenate was centrifuged at 1500×g for 10 min at 4° C. The resultant supernatant was centrifuged at 10,000×g for 30 min at 4° C. The pellet (P2) from this centrifugation was resuspended in 200 mM NaCl, 50 mM potassium phosphate buffer, pH 7.4, and centrifuged at 10,000×g for 20 min at 4° C. This washing procedure was done a total of three times, and then pellets were resuspended in buffer (˜4 mL/brain) using a glass/Teflon pestle. The membrane suspension was aliquoted, frozen in liquid nitrogen, and stored at −80° C. prior to use.
[^35S]-TBPS Binding assays were done according to the procedure described previously (Hawkinson, J. E., et al., Correlation of Neuroactive Steroid Modulation of [^35S]t-Butylbicyclophosophorothionate and [^3H]Flunitrazepam Binding and γ-Aminobutyric AcidA Receptor Function, Mol. Pharmacol., 1994, 46, 977-985) with modifications. Briefly, aliquots of membrane solution (0.5 mg/mL final protein concentration in assay) were incubated with 5 μM GABA, 2 nM [^35S]-TBPS (45-120 Ci/mmol), and 5 μL aliquots of steroid in DMSO solution (final assay concentrations ranged from 1 nM to 10 μM), and brought to a final volume of 1 mL with 200 mM NaCl, 50 mM potassium phosphate buffer, pH 7.4. […] Assay tubes were incubated for 2 hr at room temperature. A Brandel (Gaithersburg, Md.) cell harvester was used for filtration of the assay tubes through Whatman/GF/C glass filter paper. Filter paper was rinsed with 4 mL of ice-cold buffer three times. Radioactivity bound to the filters was read by liquid scintillation counter and data was fit using Sigma Plot version 3.0 to the Hill equation i. f=Rmax/{1+([conc]/IC50)^n}
Where Rmax is the maximal effect, [conc] is steroid concentration, IC50 is the half-maximal inhibitor concentration and n is the Hill coefficient. Each data point was determined in triplicate and 2-3 full concentration-response curves were generated for each steroid.

T1 sequence (P62813 28-455, stated change not applied): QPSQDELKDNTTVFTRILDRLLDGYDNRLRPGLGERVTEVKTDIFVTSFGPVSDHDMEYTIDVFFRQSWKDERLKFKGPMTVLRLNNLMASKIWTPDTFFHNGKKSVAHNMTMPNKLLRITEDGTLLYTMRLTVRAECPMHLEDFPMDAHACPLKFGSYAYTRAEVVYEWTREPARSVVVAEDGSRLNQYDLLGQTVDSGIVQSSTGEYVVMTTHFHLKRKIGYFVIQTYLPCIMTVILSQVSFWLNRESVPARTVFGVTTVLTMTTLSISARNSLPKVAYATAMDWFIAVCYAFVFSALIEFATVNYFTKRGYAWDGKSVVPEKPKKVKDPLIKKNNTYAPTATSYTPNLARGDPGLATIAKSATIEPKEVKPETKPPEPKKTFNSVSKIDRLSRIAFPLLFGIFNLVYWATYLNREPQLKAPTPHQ
T1 sequence (P63138 26-474, stated change not applied): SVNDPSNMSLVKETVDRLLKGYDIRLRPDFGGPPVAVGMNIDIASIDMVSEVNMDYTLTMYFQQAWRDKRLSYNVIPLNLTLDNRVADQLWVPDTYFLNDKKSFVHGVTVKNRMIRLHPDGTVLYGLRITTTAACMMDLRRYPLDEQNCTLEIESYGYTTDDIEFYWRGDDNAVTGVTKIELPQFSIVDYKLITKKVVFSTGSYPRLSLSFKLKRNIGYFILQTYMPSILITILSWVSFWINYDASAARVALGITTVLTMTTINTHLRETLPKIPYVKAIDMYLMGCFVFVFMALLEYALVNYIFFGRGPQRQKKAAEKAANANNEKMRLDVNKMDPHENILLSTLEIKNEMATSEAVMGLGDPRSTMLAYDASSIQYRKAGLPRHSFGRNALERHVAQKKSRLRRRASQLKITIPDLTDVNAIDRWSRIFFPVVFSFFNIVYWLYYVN
T1 sequence (P18508 with tags, fused parts or gaps INS375LLRMFSFK): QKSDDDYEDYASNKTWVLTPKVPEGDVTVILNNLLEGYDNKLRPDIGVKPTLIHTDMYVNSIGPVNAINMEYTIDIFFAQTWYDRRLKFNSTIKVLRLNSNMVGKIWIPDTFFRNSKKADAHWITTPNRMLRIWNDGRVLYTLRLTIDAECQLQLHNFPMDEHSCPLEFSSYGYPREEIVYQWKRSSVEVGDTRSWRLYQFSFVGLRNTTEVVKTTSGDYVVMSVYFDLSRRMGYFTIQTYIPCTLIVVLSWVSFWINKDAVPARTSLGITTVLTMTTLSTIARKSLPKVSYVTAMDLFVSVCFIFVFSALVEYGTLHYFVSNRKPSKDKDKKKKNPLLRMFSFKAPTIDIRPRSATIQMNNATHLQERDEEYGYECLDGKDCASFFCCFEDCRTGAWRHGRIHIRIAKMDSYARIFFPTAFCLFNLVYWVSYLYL

Row | Compound | LRR ED50 (loss of righting response) (Xenopus laevis tadpoles) | EC50 (Xenopus laevis tadpoles) | Oocyte electrophysiology, ratio of currents in presence/absence of compound, 0.1 μM [1] | Oocyte electrophysiology, ratio of currents in presence/absence of compound, 1 μM [1] | Oocyte electrophysiology, ratio of currents in presence/absence of compound, 10 μM [1] | Gating (10 μM), ratio of compound only current/2 μM GABA current [1] | melting point | IC50 [2] | LSR EC50 (loss of swimming response) (Xenopus laevis tadpoles)
1 | CC12CCC(O)CC1CCC1C2CCC23CC=CC(=O)C2CCC13 (stereo not drawn) [Compound 11b, (3α, 5β)-3-Hydroxy-13,24-cyclo-18,21-dinorchol-22-en-20-one] | 2560 ± 1390 nM | 8950 ± 10 nM | 1.07 ± 0.17 | 1.17 ± 0.11 | 2.34 ± 0.37 | 0.11 ± 0.04 | 253 to 254 °C | 1570 nM | 
2 | CC12CCC(O)CC1CCC1C2CCC23CCC=CC2CCC13 (stereo not drawn) [Compound 13a, (3α,5α)-13,24-Cyclo-18,21-dinorchol-20(22)-en-3-ol] | >10000 nM |  | 1.53 ± 0.45 | 2.12 ± 0.40 | 2.68 ± 0.42 | −0.32 ± 0.15 | 169 to 170 °C | 569 ± 28 nM | None @ 10
3 | CC12CCC(O)CC1CCC1C2CCC23CC=CC(=O)C2CCC13 (stereo not drawn) [Compound 11a, (3α,5α)-3-Hydroxy-13,24-cyclo-18,21-dinorchol-22-en-20-one] | 3380 ± 670 nM |  | 1.49 ± 0.20 | 5.87 ± 1.52 | 9.07 ± 1.86 | 0.72 ± 0.03 | 230 to 232 °C | 373 ± 20 nM | None @ 10
4 | C[C@]12CC[C@@H](O)C[C@@H]1CCC1C3CC[C@@H]4CC(=O)CC[C@]34CCC12 (stereo partly drawn) [Compound 3a, (3α,5α)-3-Hydroxy-13,24-cyclo-18,21-dinorcholan-22-one] | 2370 ± 470 nM |  | 1.30 ± 0.15 | 1.61 ± 0.22 | 2.93 ± 0.68 | 0.06 ± 0.06 | 195 to 197 °C | 1440 nM | None @ 10
5 | C[C@]12CC[C@@H](O)C[C@@H]1CCC1C3CCC4CCC(=O)C[C@@]43CCC12 (stereo partly drawn) [Compound 4a, (3α,5α)-3-Hydroxy-13,24-cyclo-18,21-dinorcholan-23-one] | 1120 ± 360 nM | 3580 ± 1080 nM | 1.39 ± 0.38 | 1.64 ± 0.15 | 6.49 ± 0.59 | 0.32 ± 0.01 | 185 to 186 °C | 334 ± 17 nM | 
